What was measured:
[1] = system: β-III tubulin expression in ReNcell VM; assay: RVM differentiation, quantitative immunocytochemistry for β-III tubulin; assay type: cell-based, human; conditions: 0.1 µM, N = 3
Procedure: (§1) The laminin solution was removed prior to cell seeding. 2 × 10^4 ReNcell VM between passages 8 and 10 were seeded in the 8-well chamber slides with 400 µL of proliferation media. The cells were grown to 70% confluency. Differentiation for RVM is initiated by growth factor withdrawal or in combination with RA or RA-PepB3. The media were replaced every 48–72 h for the duration of the differentiation. Compound treatment was only performed for one week, at which point all cells were commonly grown in growth factor withdrawal media.
(§2) Cells were fixed with 4% PFA at room temperature for 15 min. After rinsing with PBS, blocking and permeabilization were done simultaneously using 5% donkey serum and 0.3% Triton-X 100 in PBS for 30 min at room temperature. The cells were rinsed with PBS and primary antibodies were applied for 2 h at room temperature. The cells were rinsed again with PBS and secondary antibodies were applied for 1 h at room temperature. […] The cells positive for β-III tubulin and MAP2 were counted using ImageJ. […] The fluorescence channels were separated, background removed, and contrast enhanced. The number of DAPI positive cells were counted using an in-house coded nuclei counter. […] The channels were then re-merged and the cells positive for β-III tubulin and MAP2 were manually counted. […]

[2] = system: ReNcell VM (RVM) cells; conditions: PrestoBlue, N = 3
[3] = set-up: method as in PMID 1898007; conditions: reported solubility limit in water; cited from earlier work
Excerpt: Neurogenesis is an important biological process under intense investigation. Neurodegenerative diseases such as Alzheimer’s and Parkinson’s are devastating due to the fact that neurons cannot be replaced in the diseased areas of the brain [1]. […] To exert its effects ... || Retinoic acid is a potent morphogen used to differentiate stem cells towards the neural lineage.

[4] = system: ReNcell VM (RVM) cells; assay: 24 h cytotoxicity, CCK-8 (WST-8) or PrestoBlue; assay type: cell-based, human; conditions: 24 h treatment
Procedure: Sterile peptide solutions for cytotoxicity testing were prepared from stock by diluting with deionized (DI) water and filtering through a 0.22 µm polytetrafluoroethylene (PTFE) membrane. Because of aggregations and decreased solubility in water at high concentrations, a standard curve was used to determine the concentrations of the filtered peptides. Briefly, 5 µL of sample or serial diluted peptide stocks with known concentrations prepared from weighed powder, were aliquoted into wells of a 96-well half area plate. Then, 45 µL of methanol was added to each well to fully solubilize all the peptides. Absorbance measurements at 554 nm (650 nm as reference) were taken on a Tecan infinite M200 Pro plate reader (Tecan Group, Männedorf, Switzerland). After the calculation of stock concentrations, peptides were further diluted with cell culture media for treatment.
There were 10,000 ReNcell VM cells (passages below 15) that were seeded in each well, with 100 µL of RVM cell culture media supplemented with the growth factors bFGF and EGF.
For the PepB series (Figure 1 and Table 1) testing, the RVM cells were incubated with peptides for 24 h. […] After incubation for 1 h, for WST-8, a Tecan infinite M200 Pro plate reader was utilized to acquire absorbance measurements at 450 nm (650 nm as reference) and normalized to the untreated controls.

[5] = system: MAP2 expression in ReNcell VM; assay: RVM differentiation, quantitative immunocytochemistry for MAP2; assay type: cell-based, human; conditions: 0.1 µM, compound treatment for the initial one week, four weeks of differentiation, N = 3
Procedure: as §1, §2

[6] = system: undifferentiated RVM cells cultured in Matrigel; conditions: microarray chip, read-out: viability IC50; cited from earlier work

SMILES: CC1=C(/C=C/C(C)=C/C=C/C(C)=C/C(=O)O)C(C)(C)CCC1 [RA, All-Trans-Retinoic Acid]
- β-III tubulin expression, fold versus growth factor withdrawal control ([1]; compound treatment for the initial one week, four weeks of differentiation): 2 fold
- β-III tubulin expression, fold versus no growth factor control ([1]; one week of differentiation): 1.5 fold
- proliferation versus controls after 24 h ([2]; 5 and 10 µM RA): significantly less proliferation than the controls
- proliferation versus controls by day three ([2]; all tested concentrations of RA, medium refreshed every 48 h): significantly reduced rates of proliferation
- solubility in aqueous environments [3]: < 0.2 µM
- fraction of RVM cells killed ([4]; 10 µM, PrestoBlue or Cell Counting Kit-8, N = 3): more than 50%
- concentration at which RVM cells started significantly dying ([4]; 0–10 µM tested, N = 3): 5 µM
- MAP2 expression, fold versus control [5]: 2.5 fold
- IC50 [6]: 740 nM

Source: publication PMC6163344, “A Novel Cell Penetrating Peptide for the Differentiation of Human Neural Stem Cells” (Biomolecules, 2018)
